Experimental data: patent US20240309014A1, “MACROCYCLIC COMPOUNDS AND USES THEREOF” (President and Fellows of Harvard College, priority 2017, published 2024)

Assays:
[1] = test system: α-SMA positive-CAFs in FaDu tumor; assay: Effect on α-SMA positive-CAFs in the FaDu subcutaneous model (Test Example 10); type: in vivo, nude mice; settings: two days after administration
Protocol: A human squamous cell carcinoma of the head and neck (SCCHN) cell line FaDu, which had been cultured in an RPMI-1640 medium containing 10% FBS, and penicillin and streptomycin, was adjusted to a concentration of 5×10^7 cells/mL with PBS to prepare a cell suspension. The cell suspension was inoculated in a volume of 100 μL into a subcutaneous part of a right flank of nude mice, 5 to 6 weeks of ages (CAnN.Cg-Foxnlnu/CrlCrlj, female, Charles River Laboratories Japan, Inc.). Ten days after cell inoculation, a test compound in saline with 100 μM of hydroxypropyl-β-cyclodextrin was intravenously administered at ½ MTD and MTD. The experiment was conducted on groups each consisting of 3 mice. Two days after administration, tumor samples were collected and fixed with IHC Zinc Fixative (BD Pharmingen) at 4° C. for 24 hr. Paraffin-embedded tissues were sectioned ([…]), mounted on positively charged slides, and air-dried for 6 hr. Immunohistochemical staining of α-SMA was conducted using Ventana autostainer model Discover XT (Roche Diagnostics). Sections were deparaffinized, conditioned and the antigens were retrieved with proprietary buffers, EZPrep and CC1 (Ventana Medical Systems). Mouse anti-α-SMA monoclonal antibody conjugated with alkaline phosphatase (clone 1A4, Sigma) was applied at 5 μg/mL. Sections were incubated with the antibody for 6 hr. The detection was performed with RedMap kit (Ventana Medical Systems, Inc). Sections were dehydrated in graded ethanols, defatted in xylene replacement and covered with DPX (Merck KGaA). The serial tumor slices were deparaffinized and stained with Mayer's hematoxylin (Muto Pure Chemicals) for 1 min. Sections were dehydrated in graded ethanols, defatted in xylene replacement and covered with DPX (Merck KGaA).
Immunostained slides were scanned using Vectra 2 Automated Slide Imaging System (Perkin Elmer Inc.). The area of the α-SMA-positive region in the whole tumor was quantified by counting the α-SMA-positive objects using inForm 2 software (PerkinElmer Inc.). Area of the tumor region was measured by assessing the hematoxylin-staining area using inForm 2 software (PerkinElmer Inc.). The area of the α-SMA positive region was normalized by the area of the tumor region. A suppression rate of the α-SMA positive area of the test compound-dosing group was calculated with the below formula, and shown in Table 10.

[2] = test system: FaDu subcutaneous xenograft; assay: Antitumor effects in FaDu subcutaneous xenograft model as monotherapy; type: in vivo, nude mice; settings: intravenous at MTD: Halichondrin B 0.05 mg/kg, Compound (1) 0.2 mg/kg
Protocol: A human squamous cell carcinoma of the head and neck (SCCHN) cell line FaDu, which had been cultured in an RPMI-1640 medium containing 10% FBS, and penicillin and streptomycin, was adjusted to a concentration of 4.8×10^7 cells/mL with Hanks' Balanced Salt Solution to prepare a cell suspension. The cell suspension was inoculated in a volume of 100 μL into a subcutaneous part of a right flank of nude mice, 7 weeks of ages (CAnN.Cg-Foxnlnu/CrlCrlj, female, Charles River Laboratories Japan Inc.). Nine days after cell inoculation, the shortest diameter and the longest diameter of a tumor in each mouse were measured by using an electronic digital caliper (Digimatic™ caliper, Mitutoyo Corporation), so as to calculate the volume of the tumor in accordance with the following calculation formulae: […]
On the basis of the volumes of tumors obtained on the first day of administration, the mice were grouped such that averages of the tumor volumes were substantially equal among the groups. Each test compound was dissolved in DMSO and a solution was stored at the freezer before use. Immediately before the administration, the stock solution was diluted in saline with 100 μM of hydroxypropyl-β-cyclodextrin. Each evaluation sample was intravenously administered at a maximum tolerable dose (MTD). Incidentally, the experiment was conducted on groups each consisting of 4 mice.

[3] = test system: human breast cancer cell line HCC1954; assay: HCC1954 growth inhibition assay (Test Example 3); type: cell-based; settings: 3 days incubation, CellTiter-Glo
Protocol: In this assay, the growth inhibitory activity of test compounds in a human breast cancer cell line HCCl954 was measured. HCC1954 cells were maintained in an RPMI-1640 medium modified to contain 2 mM L-glutamine, 10 mM HEPES, 1 mM sodium pyruvate, 4500 mg/L glucose, and 1500 mg/L sodium bicarbonate (ATCC 30-2001) containing 10% fetal bovine serum (FBS: Nichirei, 12D168), and penicillin and streptomycin in a 5% CO2 incubator (37° C.). To each well of a 96 well plate (Becton, Dickinson and Company, 353219), 75 μL of HCC1954 cell suspension adjusted to a concentration of 4×10^4 cells/mL with the culture medium was added, and the cells were incubated overnight in a 5% CO2 incubator (37° C.). On the next day, 25 μL of Compound (1) or Halichondrin B in three-fold dilution series suspended in the culture medium was added to each well, and the resultant was incubated for 3 days in a 5% CO2 incubator (37° C.). Then, cell viability was determined by CellTiter-Glo® Luminescent Cell Viability Assay (Promega) with EnVision 2103 Multilabel Reader (Perkin-Elmer, Wellesley, MA). Value of the wells containing cells without adding the test compounds was defined as 100% and the value of the wells containing no cells was defined as 0%. The concentration of the test compound necessary for inhibiting the cell growth by 50% (i.e., an IC50 value) was calculated, and shown in Table 3.

[4] = test system: human uterine sarcoma cell line MES-SA xenograft; assay: MES-SA soft tissue sarcoma xenograft as monotherapy (FIG. 17); type: in vivo, nude mice; settings: 180 μg/kg i.v. Day 1 and Day 8
Protocol: A human uterine sarcoma cell line MES-SA, which had been cultured in an RPMI-1640 containing 10% FBS, and penicillin-streptomycin, was adjusted to a concentration of 2×10^8 cells/mL with Hanks' Balanced Salt Solution to prepare a cell suspension, and the suspension was mixed with Geltrex® (Thermo Fisher Scientific Inc., #A1413202) in a ratio of 1:1 to prepare a cell suspension in a concentration of 1×10^8 cells/mL. The cell suspension was inoculated in a volume of 100 μL into a subcutaneous part of a right flank of nude mice, 6 weeks of ages (CAnN.Cg-Foxnlnu/CrlCrlj, female, Charles River Laboratories Japan Inc.). Six days after cell inoculation (Day 1), the shortest diameter and the longest diameter of a tumor in each mouse were measured by using an electronic digital caliper (Digimatic™ caliper, Mitutoyo Corporation), so as to calculate the volume of the tumor in accordance with the following calculation formulae: […]
On the basis of the volumes of tumors obtained on Day 1, the mice were grouped such that averages of the tumor volumes were substantially equal among the groups. The experiment was conducted on groups each consisting of 6 mice. The test compound was dissolved in DMSO and a solution was stored in the freezer before use. Immediately before the administration, the stock solution was diluted with saline. […]

[5] = MTD i.v. (Halichondrin B 0.05 mg/kg, Compound (1) 0.20 mg/kg)
[6] = ½ MTD i.v. (Halichondrin B 0.025 mg/kg, Compound (1) 0.10 mg/kg)

| SMILES | Suppression rate of α-SMA positive area (%) [1, 5] | Suppression rate of α-SMA positive area (%) [1, 6] | Tumor Regression (%) [2] | IC50 ([3]; Homo sapiens, HCC1954, 72 h) | antitumor activity [4] | IC50 [3] |
| --- | --- | --- | --- | --- | --- | --- |
| C=C1C[C@@H]2CC[C@@]34C[C@H]5O[C@H]6[C@@H](O3)[C@H]3O[C@H](CC[C@@H]3O[C@H]6C5O4)CC(=O)O[C@@H]3[C@@H](C)[C@@H]4O[C@@H]5C[C@]6(C[C@@H]7O[C@]8(C[C@H](C)[C@@H]9O[C@H](CN)[C@H](O)C[C@@H]9O8)C[C@H](C)[C@@H]7O6)O[C@@H]5C[C@@H]4O[C@H]3C[C@H]3O[C@@H](CC[C@@H]1O2)C[C@@H](C)C3=C (stereo in doubt) [Compound (1)] | 28% | 21% | 43% | 0.0668 nM | tumor growth delay | – |
| C=C1C[C@@H]2CC[C@@]34C[C@H]5O[C@H]6[C@@H](O3)[C@H]3O[C@H](CC[C@@H]3O[C@H]6[C@H]5O4)CC(=O)O[C@@H]3[C@@H](C)[C@@H]4O[C@@H]5C[C@]6(C[C@@H]7O[C@]8(C[C@H](C)[C@@H]9O[C@H]([C@@H](O)C[C@@H](O)CO)C[C@@H]9O8)C[C@H](C)[C@@H]7O6)O[C@@H]5C[C@@H]4O[C@H]3C[C@H]3O[C@@H](CC[C@@H]1O2)C[C@@H](C)C3=C [Halichondrin B, reference compound] | 3% | 7% | 0% | – | – | 0.154 nM |
